What all share (assay): biochemical
Test [1] concerns the target T1, APC2/APC11 (Homo sapiens, UniProt Q9NYG5+Q9UJX6).
The target of test [2] is T1, APC2/APC11. The source holds these as a separate data set.
The target in test [3] is ROC1/CUL1 (Homo sapiens, UniProt P62877+Q13616).
The target in test [4] is T2, ROC2/CUL5 (Homo sapiens, UniProt Q93034+Q9UBF6).
T2 sequence (Q9UBF6 1-113): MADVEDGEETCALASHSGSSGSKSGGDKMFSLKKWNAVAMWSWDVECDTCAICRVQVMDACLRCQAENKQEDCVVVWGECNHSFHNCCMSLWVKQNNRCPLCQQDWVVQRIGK
T2 sequence (Q93034 1-780): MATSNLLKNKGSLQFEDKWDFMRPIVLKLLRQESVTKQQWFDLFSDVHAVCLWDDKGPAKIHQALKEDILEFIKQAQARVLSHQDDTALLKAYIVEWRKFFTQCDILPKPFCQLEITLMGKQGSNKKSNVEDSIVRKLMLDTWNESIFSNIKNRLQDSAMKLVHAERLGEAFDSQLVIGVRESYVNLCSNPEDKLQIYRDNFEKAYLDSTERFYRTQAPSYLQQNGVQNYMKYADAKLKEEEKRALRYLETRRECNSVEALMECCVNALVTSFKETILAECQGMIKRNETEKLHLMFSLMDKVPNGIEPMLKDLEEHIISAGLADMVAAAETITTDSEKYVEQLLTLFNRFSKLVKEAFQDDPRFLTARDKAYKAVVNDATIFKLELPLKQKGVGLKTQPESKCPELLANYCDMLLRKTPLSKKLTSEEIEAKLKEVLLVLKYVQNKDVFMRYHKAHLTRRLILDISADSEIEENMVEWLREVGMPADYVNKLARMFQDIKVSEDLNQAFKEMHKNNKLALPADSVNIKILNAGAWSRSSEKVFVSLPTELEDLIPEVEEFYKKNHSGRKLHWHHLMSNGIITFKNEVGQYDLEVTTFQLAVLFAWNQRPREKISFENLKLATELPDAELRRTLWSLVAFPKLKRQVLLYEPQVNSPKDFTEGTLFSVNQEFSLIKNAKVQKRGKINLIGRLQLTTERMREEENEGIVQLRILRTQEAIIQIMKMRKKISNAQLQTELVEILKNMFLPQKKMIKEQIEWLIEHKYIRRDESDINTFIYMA

In test [5] the target is ROC1/CUL2 (Homo sapiens, UniProt P62877+Q13617).

“And” between values parts separate entries of the source, which are not always exact repeats. Equal values may be shown once. Read-outs that look alike come from different tables or passages of the source.

T1 sequence (Q9UJX6 whole entry): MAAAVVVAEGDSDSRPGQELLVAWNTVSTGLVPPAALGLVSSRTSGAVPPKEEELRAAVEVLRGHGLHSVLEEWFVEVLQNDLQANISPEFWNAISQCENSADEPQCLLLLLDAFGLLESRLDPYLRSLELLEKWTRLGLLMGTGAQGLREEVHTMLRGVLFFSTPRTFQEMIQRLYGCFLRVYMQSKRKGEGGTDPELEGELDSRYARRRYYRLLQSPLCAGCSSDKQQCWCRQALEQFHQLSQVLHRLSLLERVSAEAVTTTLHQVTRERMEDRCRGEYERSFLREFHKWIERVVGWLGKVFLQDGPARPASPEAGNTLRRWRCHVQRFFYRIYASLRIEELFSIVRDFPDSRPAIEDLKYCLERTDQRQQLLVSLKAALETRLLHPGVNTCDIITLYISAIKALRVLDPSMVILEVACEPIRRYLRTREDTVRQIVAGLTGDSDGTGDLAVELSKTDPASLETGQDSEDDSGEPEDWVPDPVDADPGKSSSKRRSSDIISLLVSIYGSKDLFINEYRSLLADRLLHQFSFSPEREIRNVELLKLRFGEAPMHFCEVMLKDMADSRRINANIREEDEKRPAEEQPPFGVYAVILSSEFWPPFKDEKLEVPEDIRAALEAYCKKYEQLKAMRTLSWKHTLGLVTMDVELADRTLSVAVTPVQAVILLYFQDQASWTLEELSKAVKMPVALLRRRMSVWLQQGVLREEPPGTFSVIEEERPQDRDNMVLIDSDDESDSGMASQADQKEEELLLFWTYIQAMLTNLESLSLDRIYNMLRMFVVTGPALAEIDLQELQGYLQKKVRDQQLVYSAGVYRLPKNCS
T1 sequence (Q9NYG5 whole entry): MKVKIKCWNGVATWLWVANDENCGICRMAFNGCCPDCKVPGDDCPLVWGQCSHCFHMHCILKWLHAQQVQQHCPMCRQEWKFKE
Chain of ROC1/CUL1 (P62877 whole entry): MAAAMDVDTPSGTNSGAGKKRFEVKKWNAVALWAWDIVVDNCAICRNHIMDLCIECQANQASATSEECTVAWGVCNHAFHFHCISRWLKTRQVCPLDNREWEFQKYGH
Chain of ROC1/CUL1 (Q13616 whole entry): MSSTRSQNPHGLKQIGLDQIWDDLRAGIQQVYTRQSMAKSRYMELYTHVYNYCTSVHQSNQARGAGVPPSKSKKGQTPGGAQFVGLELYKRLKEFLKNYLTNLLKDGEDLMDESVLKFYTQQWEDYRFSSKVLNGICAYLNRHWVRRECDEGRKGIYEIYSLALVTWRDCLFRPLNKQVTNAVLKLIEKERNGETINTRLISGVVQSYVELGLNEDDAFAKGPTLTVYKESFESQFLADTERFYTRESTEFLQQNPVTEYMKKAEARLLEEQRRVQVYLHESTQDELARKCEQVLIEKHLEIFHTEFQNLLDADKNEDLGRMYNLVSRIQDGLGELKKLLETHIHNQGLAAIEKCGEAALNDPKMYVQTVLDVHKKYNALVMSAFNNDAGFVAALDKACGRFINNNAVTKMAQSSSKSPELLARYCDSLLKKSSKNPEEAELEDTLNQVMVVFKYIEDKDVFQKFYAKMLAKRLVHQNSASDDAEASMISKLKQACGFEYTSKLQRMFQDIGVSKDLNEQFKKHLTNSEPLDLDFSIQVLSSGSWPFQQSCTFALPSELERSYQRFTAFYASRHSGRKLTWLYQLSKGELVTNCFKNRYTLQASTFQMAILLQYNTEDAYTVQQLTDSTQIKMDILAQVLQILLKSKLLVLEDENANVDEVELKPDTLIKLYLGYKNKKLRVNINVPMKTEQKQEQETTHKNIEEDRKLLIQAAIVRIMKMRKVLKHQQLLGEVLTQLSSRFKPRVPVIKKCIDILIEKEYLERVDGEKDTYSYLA
Chain of ROC1/CUL2 (P62877 whole entry): as the sequence (P62877 whole entry) above
Chain of ROC1/CUL2 (Q13617 whole entry): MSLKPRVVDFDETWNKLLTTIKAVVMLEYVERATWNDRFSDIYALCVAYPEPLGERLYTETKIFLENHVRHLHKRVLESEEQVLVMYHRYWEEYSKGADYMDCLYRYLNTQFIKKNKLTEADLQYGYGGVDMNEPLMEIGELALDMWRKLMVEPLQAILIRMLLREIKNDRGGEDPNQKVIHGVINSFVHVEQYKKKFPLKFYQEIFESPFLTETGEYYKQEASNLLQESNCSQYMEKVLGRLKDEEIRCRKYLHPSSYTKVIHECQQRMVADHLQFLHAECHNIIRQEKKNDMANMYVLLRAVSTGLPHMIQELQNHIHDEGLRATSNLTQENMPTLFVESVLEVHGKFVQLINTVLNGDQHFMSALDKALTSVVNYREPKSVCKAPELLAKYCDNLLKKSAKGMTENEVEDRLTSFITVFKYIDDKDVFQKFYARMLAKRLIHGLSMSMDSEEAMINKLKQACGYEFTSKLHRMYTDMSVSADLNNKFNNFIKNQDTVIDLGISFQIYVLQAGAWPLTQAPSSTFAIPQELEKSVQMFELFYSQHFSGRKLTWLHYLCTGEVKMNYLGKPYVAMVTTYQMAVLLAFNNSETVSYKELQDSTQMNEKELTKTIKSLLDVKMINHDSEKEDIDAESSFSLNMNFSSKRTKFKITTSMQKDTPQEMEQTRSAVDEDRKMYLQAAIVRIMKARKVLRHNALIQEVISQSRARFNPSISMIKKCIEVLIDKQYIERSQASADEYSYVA

By IC50 is commonly meant the point on the concentration scale where inhibition reaches its midpoint. The low end stands for inhibition by little substance, the high end for a need for much substance. Take `O=C1/C(=C\c2ccc(-c3cccc(C(F)(F)F)c3)o2)SC(=S)N1Cc1ccco1` [Compound 55, (5E)-3-(2-furylmethyl)-2-thioxo-5-({5-[3-(trifluoromethyl)phenyl]-2-furyl}methylene)-1,3-thiazolidin-4-one]: the IC50 in test [1] was 4 µM and 10 µM.
Consider `COc1ccc(-c2ccc(/C=C3/SC(=S)NC3=O)o2)cc1Cl` [Compound 172, (5E)-5-{[5-(3-chloro-4-methoxyphenyl)-2-furyl]methylene}-2-thioxo-1,3-thiazolidin-4-one], for which the half-maximal inhibitory concentration (IC50) in test [2] and in test [1] was 2 µM each time.
On to `C=CCN1C(=O)/C(=C/c2ccc(-c3cccc(Cl)c3)o2)SC1=S` [Compound 284, (5Z)-3-allyl-5-{[5-(3-chlorophenyl)-2-furyl]methylene}-2-thioxo-1,3-thiazolidin-4-one], for which the IC50 came to 0.8 µM in test [3], 0.2 µM in test [4] and 0.8 µM in test [5].
Regarding `C=CCN1C(=O)C(Cc2ccc(-c3ccccc3Cl)o2)SC1=S` (stereo not drawn) [Compound 304, 3-allyl-5-{[5-(2-chlorophenyl)-2-furyl]methyl}-2-thioxo-1,3-thiazolidin-4-one], the half-inhibitory concentration (IC50) in test [3] was determined as 1 µM; in test [4], 0.8 µM; in test [5], 1 µM.

The record behind these values is US20060276520A1 (priority 2002, published 2006).
